From US12690591B2, “Fungicidal composition containing oxadiazole compounds” (PI INDUSTRIES LIMITED, priority 2021, dated 2026)
Like-named read-outs stand apart in the source and are kept apart here.

Assays:
Pyricularia oryzae = assay: whole plant or invertebrate; type: in vivo; details: for Observed Efficacy (%): preventive spray on rice plants
[1] = test system: Pseudoperonospora cubensis; assay: Pseudoperonospora cubensis test (cucumber), preventive glasshouse spray test; type: in vivo
Source text: The test solutions were poured into the spray bottles for further applications.

Phakopsora pachyrhizi = Phakopsora pachyrhizi test (soybean), preventive glasshouse spray test; type: in vivo; details: for pest or weed control at 0.1 ppm / pest or weed control at 0.0001 ppm / pest or weed control at 0.001 ppm / pest or weed control at 0.05 ppm / pest or weed control at 0.01 ppm: Phakopsora pachyrhizi, read-out: Observed Efficacy (%)
Septoria nodorum = assay: Parastagonospora nodorum/Septoria nodorum/Stagnospora nodorum test (wheat), preventive glasshouse spray test; type: in vivo; details: preventive spray on wheat plants
Alternaria solani = Alternaria solani test (tomato plants), preventive glasshouse spray test; details: for pest or weed control at 1 ppm / pest or weed control at 5 ppm / pest or weed control at 10 ppm: Alternaria solani, in Solanum lycopersicum, read-out: Observed Efficacy (%)
Botrytis cinerea = Botrytis cinerea test (tomato), preventive glasshouse spray test; type: in vivo
Corynespora cassiicola = Corynespora cassiicola test (tomato), preventive glasshouse spray test; type: in vivo; details: single compound
Erysiphe cichoracearum = Erysiphe cichoracearum test (cucumber), preventive glasshouse spray test; details: preventive spray on cucumber plants
Phytopthora infestans = type: in vivo; details: single compound, tomato, preventive spray
[2] = Table G1, single compound, 0.05 ppm
[3] = Table D3, single compound, 0.05 ppm, soybean, preventive spray
[4] = Table D3, single compound, 0.1 ppm, soybean, preventive spray
[5] = Pyricularia oryzae, read-out: Observed Efficacy (%)
[6] = Table G1, single compound, 0.1 ppm
[7] = single compound, Conc. 0.05 ppm
[8] = Table D1, single compound, 0.05 ppm, soybean, preventive spray

CC1CC(C)(C)c2c(F)ccc(NC(=O)c3cn(C)nc3C(F)F)c21 (centres unmarked) [Fluindapyr, fluindapyr, reference compound]
Observed Efficacy (%) (Pyricularia oryzae; single compound at 0.05 ppm): 11%
Observed Efficacy (%) [1, 2]: 35%

CC(O)(Cn1cncn1)c1ccc(Oc2ccc(Cl)cc2)cc1C(F)(F)F (centres unmarked) [Mefentrifluconazole, mefentrifluconazole]
Observed Efficacy (%) (Phakopsora pachyrhizi; [3]): 32%
Observed Efficacy (%) (Phakopsora pachyrhizi; [4]): 44%

OC(Cc1ccccc1Cl)(Cn1nc[nH]c1=S)C1(Cl)CC1 (centres unmarked) [Prothioconazole, prothioconazole]
pest or weed control at 0.1 ppm (Phakopsora pachyrhizi; Table D1, single compound, 0.1 ppm, soybean, preventive spray): 48%
Observed Efficacy (%) (Phakopsora pachyrhizi; [4]): 48%
Observed Efficacy (%) ([1]; single compound, Conc. 0.1 ppm): 45%

CNC(=O)/C(=N/OC)c1ccccc1Oc1ccccc1 [Metominostrobin, metominostrobin]
Observed Efficacy (%) (Septoria nodorum; single compound at 0.05 ppm): 6%
Observed Efficacy (%) (Septoria nodorum; single compound at 0.1 ppm): 12%

O=C(COc1ccc(F)nc1)c1ccc(-c2noc(C(F)(F)F)n2)cc1 [Compound (I-3), 2-((6-fluoropyridin-3-yl)oxy)-1-(4-(5-(trifluoromethyl)-1,2,4-oxadiazol-3-yl)phenyl)ethan-1-one]
pest or weed control at 1 ppm (Alternaria solani): 35%
pest or weed control at 5 ppm (Alternaria solani): 40%
pest or weed control at 10 ppm (Alternaria solani): 47%
Observed Efficacy (%) (Botrytis cinerea; single compound at 10 ppm, preventive spray on tomato plants): 20%
pest or weed control at 10 ppm (Pyricularia oryzae; [5]): 42%
pest or weed control at 0.0001 ppm (Phakopsora pachyrhizi; single compound at 0.0001 ppm, preventive spray on soybean plants): 43%
pest or weed control at 0.001 ppm (Phakopsora pachyrhizi; single compound at 0.001 ppm, preventive spray on soybean plants): 50%
Observed Efficacy (%) (Corynespora cassiicola; Conc. 5 ppm): 36%
Observed Efficacy (%) (Corynespora cassiicola; Conc. 10 ppm): 45%
Observed Efficacy (%) (Erysiphe cichoracearum; single compound at 1 ppm): 35%
Observed Efficacy (%) (Erysiphe cichoracearum; single compound at 5 ppm): 37%
Observed Efficacy (%) (Erysiphe cichoracearum; single compound at 10 ppm): 39%
Observed Efficacy (%) [1, 6]: 36%
Observed Efficacy (%) ([1]; Table G1, single compound, 1 ppm): 32%
Observed Efficacy (%) ([1]; Table G1, single compound, 10 ppm): 34%

mancozeb
Observed Efficacy (%) (Corynespora cassiicola; Conc. 0.05 ppm): 10%
Observed Efficacy (%) [1, 2]: 2%
Observed Efficacy (%) [1, 6]: 5%
Observed Efficacy (%) [1, 7]: 2%
Observed Efficacy (%) ([1]; single compound, Conc. 0.1 ppm): 5%

metiram [reference compound]
Observed Efficacy (%) (Pyricularia oryzae; single compound at 0.1 ppm): 18%

O=C(Nc1ccccc1-c1ccc(Cl)cc1)c1cccnc1Cl [Boscalid, boscalid, reference compound]
pest or weed control at 0.05 ppm (Phakopsora pachyrhizi; [8]): 27%
Observed Efficacy (%) (Phytopthora infestans; Conc. 0.1 ppm): 11%

N#Cc1sc2c(=O)c3ccccc3c(=O)c=2sc1C#N [Dithianon, dithianon]
Observed Efficacy (%) (Septoria nodorum; single compound at 0.1 ppm): 16%

O=[N+]([O-])c1cc(C(F)(F)F)c(Cl)c([N+](=O)[O-])c1Nc1ncc(C(F)(F)F)cc1Cl [Fluazinam, fluazinam]
Observed Efficacy (%) (Corynespora cassiicola; Conc. 0.1 ppm): 12%
Observed Efficacy (%) (Septoria nodorum; single compound at 0.1 ppm): 21%

Cn1cc(C(=O)Nc2cccc3c2[C@@H]2CC[C@H]3C2=C(Cl)Cl)c(C(F)F)n1 (racemic) [Benzovindiflupyr, benzovindiflupyr]
Observed Efficacy (%) (Corynespora cassiicola; Conc. 0.05 ppm): 18%

COC(=O)N(OC)c1ccccc1COc1ccn(-c2ccc(Cl)cc2)n1 [Pyraclostrobin, pyraclostrobin]
pest or weed control at 0.05 ppm (Phakopsora pachyrhizi; [3]): 37%
pest or weed control at 0.1 ppm (Phakopsora pachyrhizi; [4]): 46%

CO/C=C(/C(=O)OC)c1ccccc1Oc1cc(Oc2ccccc2C#N)ncn1 [Azoxystrobin, azoxystrobin, reference compound]
Observed Efficacy (%) (Pyricularia oryzae; single compound at 0.1 ppm): 26%

CC1CC(C)(C)c2c(F)ccc(NC(=O)c3cn(C)nc3C(F)F)c21 (centres unmarked) [Inpyrfluxam, inpyrfluxam]
Observed Efficacy (%) (Alternaria solani; single compound at 0.1 ppm, preventive spray on tomato plants): 23%
Observed Efficacy (%) (Phakopsora pachyrhizi; [8]): 18%
Observed Efficacy (%) (Corynespora cassiicola; Conc. 0.05 ppm): 16%
Observed Efficacy (%) (Septoria nodorum; single compound at 0.05 ppm): 12%

O=C(COc1ccc(F)cc1)c1ccc(-c2noc(C(F)(F)F)n2)cc1 [Compound (I-2), 2-(4-fluorophenoxy)-1-(4-(5-(trifluoromethyl)-1,2,4-oxadiazol-3-yl)phenyl)ethan-1-one]
pest or weed control at 1 ppm (Alternaria solani): 34%
pest or weed control at 5 ppm (Alternaria solani): 42%
pest or weed control at 10 ppm (Alternaria solani): 47%
Observed Efficacy (%) (Botrytis cinerea; Table F1, single compound, 1 ppm, tomato, preventive spray): 20%
Observed Efficacy (%) (Botrytis cinerea; Table F1, single compound, 5 ppm, tomato, preventive spray): 27%
Observed Efficacy (%) (Botrytis cinerea; Table F1, single compound, 10 ppm, tomato, preventive spray): 47%
pest or weed control at 1 ppm (Pyricularia oryzae; [5]): 17%
pest or weed control at 10 ppm (Pyricularia oryzae; [5]): 37%
pest or weed control at 0.0001 ppm (Phakopsora pachyrhizi; Table D1, single compound, 0.0001 ppm, soybean, preventive spray): 40%
pest or weed control at 0.001 ppm (Phakopsora pachyrhizi; Table D1, single compound, 0.001 ppm, soybean, preventive spray): 50%
pest or weed control at 0.01 ppm (Phakopsora pachyrhizi; Table D1, single compound, soybean, preventive spray): 62%
Observed Efficacy (%) (Septoria nodorum; single compound at 1 ppm): 17%
Observed Efficacy (%) (Septoria nodorum; single compound at 5 ppm): 20%
Observed Efficacy (%) (Septoria nodorum; single compound at 10 ppm): 43%
Observed Efficacy (%) (Erysiphe cichoracearum; single compound at 1 ppm): 13%

O=C1c2ccccc2C(=O)N1SC(Cl)(Cl)Cl [Folpet, folpet, reference compound]
Observed Efficacy (%) (Botrytis cinerea; Table F1, single compound, 0.1 ppm, tomato, preventive spray): 38%
Observed Efficacy (%) (Phytopthora infestans; Conc. 0.1 ppm): 11%

O=C(NCCc1ncc(C(F)(F)F)cc1Cl)c1ccccc1C(F)(F)F [Fluopyram, fluopyram]
Observed Efficacy (%) (Septoria nodorum; single compound at 0.05 ppm): 8%
Observed Efficacy (%) (Septoria nodorum; single compound at 0.1 ppm): 21%
Observed Efficacy (%) [1, 2]: 2%
Observed Efficacy (%) [1, 6]: 12%
Observed Efficacy (%) [1, 7]: 2%
Observed Efficacy (%) ([1]; single compound, Conc. 0.1 ppm): 12%

O=C(CNc1ccc(F)cc1)c1ccc(-c2noc(C(F)(F)F)n2)cc1 [Compound (I-8), 2-((4-fluorophenyl)amino)-1-(4-(5-(trifluoromethyl)-1,2,4-oxadiazol-3-yl)phenyl)ethan-1-one]
pest or weed control at 1 ppm (Alternaria solani): 26%
pest or weed control at 5 ppm (Alternaria solani): 37%
pest or weed control at 10 ppm (Alternaria solani): 47%
pest or weed control at 1 ppm (Pyricularia oryzae; [5]): 17%
pest or weed control at 5 ppm (Pyricularia oryzae; [5]): 22%
pest or weed control at 10 ppm (Pyricularia oryzae; [5]): 31%
pest or weed control at 0.0001 ppm (Phakopsora pachyrhizi; Table D3, single compound, 0.0001 ppm, soybean, preventive spray): 37%
pest or weed control at 0.001 ppm (Phakopsora pachyrhizi; Table D3, single compound, 0.001 ppm, soybean, preventive spray): 47%
pest or weed control at 0.01 ppm (Phakopsora pachyrhizi; Table D3, single compound, soybean, preventive spray): 60%
Observed Efficacy (%) (Erysiphe cichoracearum; single compound at 1 ppm): 19%
Observed Efficacy (%) (Erysiphe cichoracearum; single compound at 5 ppm): 25%
Observed Efficacy (%) (Erysiphe cichoracearum; single compound at 10 ppm): 31%
Observed Efficacy (%) (Phytopthora infestans; Conc. 1 ppm): 32%
Observed Efficacy (%) (Phytopthora infestans; Conc. 5 ppm): 42%
Observed Efficacy (%) ([1]; single compound, Conc. 1 ppm): 17%
Observed Efficacy (%) ([1]; single compound, Conc. 5 ppm): 19%
Observed Efficacy (%) ([1]; single compound, Conc. 10 ppm): 28%
